Here are results for 21 compounds from PubChem BioAssay AID192 (DTP/NCI, 2004).

The assay relates to BDF1 mice, B16 melanoma ip, median survival T/C. The experiment in a line: NCI In Vivo Anticancer Drug Screen. Data for tumor model B16 Melanoma (intraperitoneal) in B6D2F1 (BDF1) mice. The following applies: endpoint: median survival time, higher = longer survival. Summed up:
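Compounds were tested in mice carrying transplantable tumors. Survival or tumor size was recorded, and each value is the treated-group measurement (T) divided by that of the vehicle-treated control group (C).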

Where [1] appears, read: dose: 25.0 mg/kg/injection, schedule: Q01DX009 (ip), vehicle: saline.
Where [2] appears, read: dose: 50.0 mg/kg/injection, schedule: Q01DX009 (ip), vehicle: saline.
Where [3] appears, read: dose: 100.0 mg/kg/injection, schedule: Q01DX009 (ip), vehicle: saline.
Where [4] appears, read: dose: 1.56 mg/kg/injection, schedule: Q01DX009 (ip), vehicle: saline.
Setting [5] is: dose: 3.12 mg/kg/injection, schedule: Q01DX009 (ip), vehicle: saline.
Where [6] appears, read: dose: 6.25 mg/kg/injection, schedule: Q01DX009 (ip), vehicle: saline.
The mark [7] stands for this setting: dose: 12.5 mg/kg/injection, schedule: Q01DX009 (ip), vehicle: saline.
Where [8] appears, read: dose: 100.0 mg/kg/injection, schedule: Q01DX009 (ip), vehicle: Klucel (hydroxypropylcellulose) (HPC).
[9] abbreviates: dose: 12.5 mg/kg/injection, schedule: Q01DX009 (ip), vehicle: Klucel (hydroxypropylcellulose) (HPC).
The mark [10] stands for this setting: dose: 75.0 mg/kg/injection, schedule: Q01DX009 (ip), vehicle: Klucel (hydroxypropylcellulose) (HPC).
Setting [11] is: dose: 150.0 mg/kg/injection, schedule: Q01DX009 (ip), vehicle: Klucel (hydroxypropylcellulose) (HPC).
The mark [12] stands for this setting: dose: 300.0 mg/kg/injection, schedule: Q01DX009 (ip), vehicle: Klucel (hydroxypropylcellulose) (HPC).

Values joined by “and” are separate entries in the source; they are usually repeats but may differ in a detail not shown here. Equal entries are not always repeated. Toxic doses and inconclusive results are not listed.

As to `CC(=N\O)/C(C)=N/O.CC(=N\O)/C(C)=N/O.[Ni]`, the T/C by setting is: (dose: 3.0 mg/kg/injection, schedule: Q01DX009 (ip), vehicle: saline with Tween-80) 93 % of control; (dose: 6.0 mg/kg/injection, schedule: Q01DX009 (ip), vehicle: saline with Tween-80) 87 % of control.
`CCCCNCCN(CC)CC`: the T/C is 100 % of control under setting [1], 100 % of control under setting [2] and 98 % of control under setting [3].
Turning to `C[CH2][Sn]([CH2]C)([CH2]C)[O]C(=O)CO`, the T/C under setting [4] is 97 % of control and the T/C (dose: 3.13 mg/kg/injection, schedule: Q01DX009 (ip), vehicle: saline) is 87 % of control.
For the compound `ClCC[Se](Cl)(Cl)c1ccccc1`, the T/C (dose: 0.78 mg/kg/injection, schedule: Q01DX009 (ip), vehicle: saline) is 96 % of control; the T/C under setting [4] is 105 % of control; the T/C under setting [5] is 113 % of control.
Turning to `CCCc1c(C)[nH]c2ccc(C)cc12`, the T/C runs as follows: (dose: 25.0 mg/kg/injection, schedule: Q01DX009 (ip), vehicle: saline with Tween-80) 101 % of control; (dose: 50.0 mg/kg/injection, schedule: Q01DX009 (ip), vehicle: saline with Tween-80) 105 % of control; (dose: 100.0 mg/kg/injection, schedule: Q01DX009 (ip), vehicle: saline with Tween-80) 87 % of control.
`CC12CCC3C(CCC4CC(OC(=O)Cc5ccc(N(CCCl)CCCl)cc5)CCC43C)C1CCC(=O)N2` (stereo not given): the T/C by setting is: (dose: 0.75 mg/kg/injection, schedule: Q01DX009 (ip), vehicle: saline) 113 % of control; (dose: 1.5 mg/kg/injection, schedule: Q01DX009 (ip), vehicle: saline with Tween-80) 110 % of control; (dose: 1.5 mg/kg/injection, schedule: Q01DX009 (ip), vehicle: saline) 121 % of control; (dose: 3.0 mg/kg/injection, schedule: Q01DX009 (ip), vehicle: saline) 121 % of control; (dose: 12.0 mg/kg/injection, schedule: Q01DX009 (ip), vehicle: saline) 154 % of control.
Regarding `Cc1cn(C2CC(F)C(CO)O2)c(=O)[nH]c1=O` (stereo not given), the T/C is, setting by setting: under setting [6], 108 % of control; under setting [7], 103 % of control; under setting [1], 110 % of control; under setting [2], 115 % of control; under setting [3], 97 % of control.
For `CCC(N)Cc1ccc(OC)c(OC)c1` (stereo not given), the T/C is, setting by setting: (dose: 50.0 mg/kg/injection, schedule: Q01DX009 (ip), vehicle: Klucel (hydroxypropylcellulose) (HPC)) 97 % of control; under setting [8], 102 % of control; (dose: 200.0 mg/kg/injection, schedule: Q01DX009 (ip), vehicle: Klucel (hydroxypropylcellulose) (HPC)) 105 % of control.
For the compound `N#CCCC1C2CCC(C2)C1C#N` (stereo not given), the T/C by setting is: (dose: 5.0 mg/kg/injection, schedule: Q01DX009 (ip), vehicle: Klucel (hydroxypropylcellulose) (HPC)) 112 % of control; (dose: 10.0 mg/kg/injection, schedule: Q01DX009 (ip), vehicle: Klucel (hydroxypropylcellulose) (HPC)) 95 % of control.
For the compound `O=P(N1CC1)(N1CC1)N1CC1`, the T/C is 120 % of control (dose: 0.75 mg/kg/injection, schedule: Q01DX009 (ip), vehicle: saline with Tween-80); 110 % of control (dose: 1.0 mg/kg/injection, schedule: Q01DX009 (ip), vehicle: saline); 120 % of control (dose: 2.0 mg/kg/injection, schedule: Q01DX009 (ip), vehicle: saline).
With `CCN(CC)CCCC(C)Nc1ccnc(/C=C/c2ccc(Cl)cc2)c1` (stereo not given), the T/C was 86 % of control under setting [9]; 86 % of control (dose: 18.75 mg/kg/injection, schedule: Q04DX003 (ip), vehicle: saline); 92 % of control (dose: 25.0 mg/kg/injection, schedule: Q01DX009 (ip), vehicle: Klucel (hydroxypropylcellulose) (HPC)); 93 % of control (dose: 37.5 mg/kg/injection, schedule: Q04DX003 (ip), vehicle: saline); 89 % of control (dose: 75.0 mg/kg/injection, schedule: Q04DX003 (ip), vehicle: saline).
`COc1cc2c(cc1OC)C(OC)N(C)c1c-2ccc2cc(OC)c(OC)cc12` (stereo not given): the T/C is, setting by setting: (dose: 37.5 mg/kg/injection, schedule: Q01DX009 (ip), vehicle: Klucel (hydroxypropylcellulose) (HPC)) 98 % of control; under setting [10], 95 % of control; under setting [11], 100 % of control; under setting [12], 100 % of control.
With `CCc1cccc(CC)c1N1C(=O)C=CC1=O`, the T/C was 97 % of control (dose: 0.2 mg/kg/injection, schedule: Q01DX009 (ip), vehicle: saline with Tween-80); 99 % of control (dose: 0.39 mg/kg/injection, schedule: Q01DX009 (ip), vehicle: saline with Tween-80); 92 % of control (dose: 0.78 mg/kg/injection, schedule: Q01DX009 (ip), vehicle: saline with Tween-80); 86 % of control and 90 % of control (dose: 1.56 mg/kg/injection, schedule: Q01DX009 (ip), vehicle: saline with Tween-80).
With `COc1ccc2c(=O)cc(-c3ccccc3)[nH]c2c1`, the T/C runs as follows: under setting [7], 114 % of control; under setting [1], 117 % of control; under setting [2], 120 % of control.
For `O=NN(CCBr)C(=O)NC1CCCCC1`, the T/C is 105 % of control (dose: 100.0 mg/kg/injection, schedule: Q01DX009 (ip), vehicle: gum acacia); 102 % of control (dose: 200.0 mg/kg/injection, schedule: Q01DX009 (ip), vehicle: gum acacia); 90 % of control (dose: 400.0 mg/kg/injection, schedule: Q01DX009 (ip), vehicle: gum acacia).
For the compound `CCOC(=O)C(NC(=O)NC)C(=O)OCC`, the T/C runs as follows: under setting [10], 102 % of control; under setting [11], 103 % of control; under setting [12], 100 % of control.
With `O=C1Cc2cccc3c2C(C1)CN3C(=O)c1ccccc1` (stereo not given), the T/C was 101 % of control (dose: 100.0 mg/kg/injection, schedule: Q04DX003 (ip), vehicle: Klucel (hydroxypropylcellulose) (HPC)); 106 % of control (dose: 200.0 mg/kg/injection, schedule: Q04DX003 (ip), vehicle: Klucel (hydroxypropylcellulose) (HPC)); 110 % of control (dose: 400.0 mg/kg/injection, schedule: Q04DX003 (ip), vehicle: Klucel (hydroxypropylcellulose) (HPC)).
On to `CCCC(=O)OCC1OC(n2cnc3c(=S)nc(N)[nH]c32)C(OC(=O)CCC)C1OC(=O)CCC` (stereo not given), for which the T/C runs as follows: (dose: 0.78 mg/kg/injection, schedule: Q01DX009 (ip), vehicle: Klucel (hydroxypropylcellulose) (HPC)) 106 % of control; (dose: 1.56 mg/kg/injection, schedule: Q01DX009 (ip), vehicle: Klucel (hydroxypropylcellulose) (HPC)) 112 % of control; (dose: 3.12 mg/kg/injection, schedule: Q01DX009 (ip), vehicle: Klucel (hydroxypropylcellulose) (HPC)) 113 % of control; (dose: 6.25 mg/kg/injection, schedule: Q01DX009 (ip), vehicle: Klucel (hydroxypropylcellulose) (HPC)) 103 % of control and 106 % of control; under setting [9], 87 % of control.
`CCC1(CC)COC(=O)NC1=O`: the T/C by setting is: under setting [4], 105 % of control; under setting [5], 97 % of control; under setting [6], 105 % of control; under setting [7], 107 % of control.
Consider `Nc1nc2n[nH]nc2c(=O)[nH]1`, for which the T/C runs as follows: under setting [1], 108 % of control; under setting [2], 108 % of control; under setting [3], 113 % of control; (dose: 200.0 mg/kg/injection, schedule: Q01DX009 (ip), vehicle: saline) 111 % of control.
For the compound `C=C1C(=O)OC2C=C(C)C3C(O)CC(C)(O)C3CC12` (stereo not given), the T/C under setting [8] is 88 % of control.
